Data taken from US9169241B2, “Quinolinyloxyphenylsulfonamides” (Max-Planck-Gesellschaft Zur Forderung der Wissenschaften …, priority 2009, dated 2015).
pIC50: −log10 of the molar value.

Key:
Experiment in all cases: Apoptosis assay (Cellomics, nucleus condensation)
Type in all cases: cell-based
[1] = test system: C8161; details: Homo sapiens, Table III, read-out: Apoptosis induction in C8161
Procedure, shortened: (§1)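 Readout: per-nucleus Hoechst 33342 fluorescence intensity and its population variation, plus number of detected cells, by automated CCD imaging. Live cells, 5000/well; compound 0.39–12.5 μM (twofold series) vs DMSO, read at 24 h and 48 h.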

[2] = test system: Hs578T; details: Homo sapiens, Hs-578T, Table III, read-out: Apoptosis induction in Hs578T
Procedure, shortened: as §1

[3] = test system: SF126; details: Homo sapiens, SF-126, Table III, read-out: Apoptosis induction in SF126
Procedure, shortened: as §1

[4] = test system: SF763; details: Table III, read-out: Apoptosis induction in SF763
Procedure, shortened: as §1

[5] = test system: U118; details: Table III, read-out: Apoptosis induction in U118
Procedure, shortened: as §1

[6] = test system: U138; details: Table III, read-out: Apoptosis induction in U138
Procedure, shortened: as §1

| SMILES | pIC50 [1] | pIC50 [2] | pIC50 [3] | pIC50 [4] | pIC50 [5] | pIC50 [6] |
| --- | --- | --- | --- | --- | --- | --- |
| COc1cc2c(Oc3ccc(NS(=O)(=O)c4c(Cl)cccc4Cl)cc3F)ccnc2cc1OCCCN1CCN(C)CC1 [Example 32, 2,6-Dichloro-N-(3-fluoro-4-{6-methoxy-7-[3-(4-methyl-piperazin-1-yl)-propoxy]-quinolin-4-yloxy}-phenyl)-benzenesulfonamide] | ≥ 4.90 | ≥ 4.90 | ≥ 4.90 | ≥ 4.90 | ≥ 4.90 | ≥ 4.90 |
| COc1cc2c(Oc3ccc(NS(=O)(=O)c4ccccc4OC)cc3F)ccnc2cc1OCCCN1CCN(C)CC1 [Example 33, N-(3-Fluoro-4-{6-methoxy-7-[3-(4-methyl-piperazin-1-yl)-propoxy]-quinolin-4-yloxy}-phenyl)-2-methoxy-benzenesulfonamide] | ≥ 4.90 | 4.30 to 4.90 | ≥ 4.90 | ≥ 4.90 | 4.30 to 4.90 | ≥ 4.90 |
| COc1cc2c(Oc3ccc(NS(=O)(=O)c4cccc(C#N)c4)cc3F)ccnc2cc1OCCCN1CCCC(C)C1 (stereo not drawn) [Example 41, 3-Cyano-N-(3-fluoro-4-{6-methoxy-7-[3-(3-methyl-piperidin-1-yl)-propoxy]-quinolin-4-yloxy}-phenyl)-benzenesulfonamide] | ≥ 4.90 | ≥ 4.90 | ≥ 4.90 | ≥ 4.90 | ≥ 4.90 | ≥ 4.90 |
| COc1cc2c(Oc3ccc(NS(=O)(=O)c4cccc(C)c4)cc3F)ccnc2cc1OCCCN1CCCC(C)C1 (stereo not drawn) [Example 70, N-(3-Fluoro-4-{6-methoxy-7-[3-(3-methyl-piperidin-1-yl)-propoxy]-quinolin-4-yloxy}-phenyl)-3-methyl-benzenesulfonamide] | ≥ 4.90 | ≥ 4.90 | ≥ 4.90 | ≥ 4.90 | ≥ 4.90 | ≥ 4.90 |
| COc1cc2c(Oc3ccc(NS(=O)(=O)c4ccc(F)c(C#N)c4)cc3F)ccnc2cc1OCCCN1CCCC(C)C1 (stereo not drawn) [Example 72, 3-Cyano-4-fluoro-N-(3-fluoro-4-{6-methoxy-7-[3-(3-methyl-piperidin-1-yl)-propoxy]-quinolin-4-yloxy}-phenyl)-benzenesulfonamide] | ≥ 4.90 | ≥ 4.90 | 4.30 to 4.90 | ≥ 4.90 | ≥ 4.90 | 4.30 to 4.90 |
| COc1cc2c(Oc3c(Cl)cc(NS(=O)(=O)c4c(F)cccc4F)cc3Cl)ccnc2cc1OCCCN1CCN(C)CC1 [Example 88, N-(3,5-Dichloro-4-{6-methoxy-7-[3-(4-methyl-piperazin-1-yl)-propoxy]-quinolin-4-yloxy}-phenyl)-2,6-difluoro-benzenesulfonamide] | ≥ 4.90 | ≥ 4.90 | ≥ 4.90 | ≥ 4.90 | ≥ 4.90 | ≥ 4.90 |
| COc1cc2c(Oc3ccc(NS(=O)(=O)c4ccccc4C(F)(F)F)cc3F)ccnc2cc1OCC(=O)N(C)C [Example 93, 2-{4-[2-Fluoro-4-(2-trifluoromethyl-benzenesulfonylamino)-phenoxy]-6-methoxy-quinolin-7-yloxy}-N,N-dimethyl-acetamide] | ≥ 4.90 | ≥ 4.90 | ≥ 4.90 | ≥ 4.90 | ≥ 4.90 | ≥ 4.90 |
| COc1cc2c(Oc3ccc(NS(=O)(=O)c4ccccc4C(F)(F)F)cc3F)ccnc2cc1OCCCNC1CCOCC1 [Example 95, N-(3-Fluoro-4-{6-methoxy-7-[3-(tetrahydro-pyran-4-ylamino)-propoxy]-quinolin-4-yloxy}-phenyl)-2-trifluoromethyl-benzenesulfonamide] | ≥ 4.90 | ≥ 4.90 | ≥ 4.90 | ≥ 4.90 | ≥ 4.90 | ≥ 4.90 |
| COc1cc2c(Oc3ccc(NS(=O)(=O)c4ccccc4C(F)(F)F)cc3F)ccnc2cc1OCCCN1CCCCC1C (stereo not drawn) [Example 99, N-(3-Fluoro-4-{6-methoxy-7-[3-(2-methyl-piperidin-1-yl)-propoxy]-quinolin-4-yloxy}-phenyl)-2-trifluoromethyl-benzenesulfonamide] | ≥ 4.90 | ≥ 4.90 | ≥ 4.90 | ≥ 4.90 | 4.30 to 4.90 | ≥ 4.90 |
